Values after ≈ are worked out from the molar mass of the structure shown.
How the values were obtained:
[1] = system: Enterococcus faecium isolates (n = 104); assay: Broth microdilution MIC, clinical isolate panel; format: cell-based; conditions: Enterococcus faecium (n = 104)
Procedure: (§1) Comparator antibiotics were supplied by Micromyx, and stock solutions were prepared on the first day of testing using solvents recommended by CLSI (1). Stock solutions of all compounds were made at 40× the final testing concentration and stored at −80° C. prior to testing. Information regarding compound source, catalog and lot number, testing concentrations and drug diluent for the comparators and test agent are detailed below in Table 3.
(§2) The test organisms evaluated in this study consisted of clinical isolates from the Micromyx Repository and reference isolates from the American Type Culture Collection (ATCC; Manassas, Va.). The clinical isolates were obtained from USA hospitals. Upon initial receipt at Micromyx, the organisms were sub-cultured onto an appropriate agar medium. Following incubation, colonies were harvested from these plates and cell suspensions prepared and frozen at −80° C. with a cryoprotectant. Prior to testing, the isolates were streaked from frozen vials onto Trypticase Soy Agar with 5% sheep blood (Becton Dickenson [BD]; Sparks, Md.; Lot Nos. 7173618, 7166759, 7208688, 72144895, 7228505 and Remel Lenexa, Kans. Lot No. 212574). Plates were incubated at 35° C. overnight.
(§3) Mueller Hinton II broth (MHB II; BD; Lot Nos. 6258541 and 7143896) was used for MIC testing of aerobic organisms.
(§4) MIC values were determined using a broth microdilution procedure described by CLSI (1, 3). Automated liquid handlers (Multidrop 384, Labsystems, Helsinki, Finland; Biomek 2000 and Biomek FX, Beckman Coulter, Fullerton Calif.) were used to conduct serial dilutions and liquid transfers.
(§5) To prepare the drug mother plates, which would provide the serial drug dilutions for the replicate daughter plates, the wells of columns 2-12 of standard 96-well microdilution plates (Costar 3795) were filled with 150 μl of the designated diluent for each row of drug. The test articles and comparator compounds (300 μl at 40× the highest concentration to be tested) were dispensed into the appropriate wells in column 1. The Biomek 2000 was then used to make 2-fold serial dilutions in the mother plates from column 1 through column 11. The wells of Column 12 contained no drug and served as the organism growth control wells for the assay.
(§6) The daughter plates were loaded with 185 μL per well of MHB II using the Multidrop 384. The daughter plates were completed on the Biomek FX instrument which transferred 5 µL of drug solution from each well of a mother plate to the corresponding well of each daughter plate in a single step. A standardized inoculum of each test organism was prepared per CLSI methods (1). The inoculum for each organism was dispensed into sterile reservoirs divided by length (Beckman Coulter), and the Biomek 2000 was used to inoculate the plates. Daughter plates were placed on the Biomek 2000 work surface in reverse orientation so that inoculation took place from low to high drug concentration.
(§7) Plates were stacked 3-4 high, covered with a lid on the top plate, placed in plastic bags, and incubated at 35° C. for 16 to 20 hrs. Following incubation, the microplates were removed from the incubator and viewed from the bottom using a plate viewer. […] The MIC was read and recorded as the lowest concentration of drug that inhibited visible growth of the organism.
(§8) Clinical breakpoints to determine percent resistance within a given organism group were obtained from CLSI (3), with the exception of colistin for K. pneumoniae, Enterobacter spp., and E. coli, which are only available from EUCAST.

[2] = system: Staphylococcus aureus isolates (n = 104); assay: Broth microdilution MIC, clinical isolate panel; format: cell-based
Procedure: as §1, §2, §3, §4, §5, §6, §7, §8

[3] = system: Acinetobacter baumannii ATCC 19606 (non-MDR); assay: Broth microdilution MIC (Table 2); format: cell-based
Procedure: (§9) Each peptide was formulated in PBS buffer prior to testing. Peptides of SEQ ID NO:5 and SEQ ID NO:8 were brought up in 100% DMSO with 0.002% polysorbate-80 at 1.28 mg/mL (40× the highest final test concentration of 32 mcg/mL). Final test concentration of DMSO was 2.5% in the assay at the first dilution for those two compounds.
(§10) Mueller Hinton II broth (MHB II; BD; Lot Nos. 6258541 and 7143896) was used for MIC testing of aerobic organisms. 0.002% polysorbate 80 (P80) was added to the test medium.
as §4
as §5, with “serial peptide” for “serial drug”, “of peptide.” for “of drug.”
as §6, with “5 uL” for “5 µL”, “of peptide” for “of drug”, “CLSI methods.” for “CLSI methods (1).”, “concentration. The plates were then inoculated with 10 μL of the inoculum resulting in a final cell density of approximately 5×10^5 CFU/mL, per well.” for “concentration.”
as §7, with “peptide” for “drug”

[4] = system: Acinetobacter baumannii ATCC BAA-1797 (MDR); assay: Broth microdilution MIC (Table 2); format: cell-based
Procedure: as §9, §10, §4
as §5, with “serial peptide” for “serial drug”, “of peptide.” for “of drug.”
as §6, with “5 uL” for “5 µL”, “of peptide” for “of drug”, “CLSI methods.” for “CLSI methods (1).”, “concentration. The plates were then inoculated with 10 μL of the inoculum resulting in a final cell density of approximately 5×10^5 CFU/mL, per well.” for “concentration.”
as §7, with “peptide” for “drug”

[5] = system: Enterococcus faecalis ATCC 29212 (VSE; QC); assay: Broth microdilution MIC (Table 2); format: cell-based
Procedure: as §9, §10, §4
as §5, with “serial peptide” for “serial drug”, “of peptide.” for “of drug.”
as §6, with “5 uL” for “5 µL”, “of peptide” for “of drug”, “CLSI methods.” for “CLSI methods (1).”, “concentration. The plates were then inoculated with 10 μL of the inoculum resulting in a final cell density of approximately 5×10^5 CFU/mL, per well.” for “concentration.”
as §7, with “peptide” for “drug”

[6] = system: Enterococcus faecalis ATCC 700802 (V583 VRE); assay: Broth microdilution MIC (Table 2); format: cell-based
Procedure: as §9, §10, §4
as §5, with “serial peptide” for “serial drug”, “of peptide.” for “of drug.”
as §6, with “5 uL” for “5 µL”, “of peptide” for “of drug”, “CLSI methods.” for “CLSI methods (1).”, “concentration. The plates were then inoculated with 10 μL of the inoculum resulting in a final cell density of approximately 5×10^5 CFU/mL, per well.” for “concentration.”
as §7, with “peptide” for “drug”

[7] = system: Enterococcus faecium ATCC 51559 (VRE); assay: Broth microdilution MIC (Table 2); format: cell-based
Procedure: as §9, §10, §4
as §5, with “serial peptide” for “serial drug”, “of peptide.” for “of drug.”
as §6, with “5 uL” for “5 µL”, “of peptide” for “of drug”, “CLSI methods.” for “CLSI methods (1).”, “concentration. The plates were then inoculated with 10 μL of the inoculum resulting in a final cell density of approximately 5×10^5 CFU/mL, per well.” for “concentration.”
as §7, with “peptide” for “drug”

[8] = system: Pseudomonas aeruginosa ATCC 27853 (non-MDR; QC); assay: Broth microdilution MIC (Table 2); format: cell-based
Procedure: as §9, §10, §4
as §5, with “serial peptide” for “serial drug”, “of peptide.” for “of drug.”
as §6, with “5 uL” for “5 µL”, “of peptide” for “of drug”, “CLSI methods.” for “CLSI methods (1).”, “concentration. The plates were then inoculated with 10 μL of the inoculum resulting in a final cell density of approximately 5×10^5 CFU/mL, per well.” for “concentration.”
as §7, with “peptide” for “drug”

[9] = system: Staphylococcus aureus ATCC 29213 (MSSA; QC); assay: Broth microdilution MIC (Table 2); format: cell-based
Procedure: as §9, §10, §4
as §5, with “serial peptide” for “serial drug”, “of peptide.” for “of drug.”
as §6, with “5 uL” for “5 µL”, “of peptide” for “of drug”, “CLSI methods.” for “CLSI methods (1).”, “concentration. The plates were then inoculated with 10 μL of the inoculum resulting in a final cell density of approximately 5×10^5 CFU/mL, per well.” for “concentration.”
as §7, with “peptide” for “drug”

[10] = system: Staphylococcus aureus ATCC 43300 (MRSA); assay: Broth microdilution MIC (Table 2); format: cell-based
Procedure: as §9, §10, §4
as §5, with “serial peptide” for “serial drug”, “of peptide.” for “of drug.”
as §6, with “5 uL” for “5 µL”, “of peptide” for “of drug”, “CLSI methods.” for “CLSI methods (1).”, “concentration. The plates were then inoculated with 10 μL of the inoculum resulting in a final cell density of approximately 5×10^5 CFU/mL, per well.” for “concentration.”
as §7, with “peptide” for “drug”

[11] = system: Staphylococcus aureus NRS382 (USA100; HA-MRSA); assay: Broth microdilution MIC (Table 2); format: cell-based
Procedure: as §9, §10, §4
as §5, with “serial peptide” for “serial drug”, “of peptide.” for “of drug.”
as §6, with “5 uL” for “5 µL”, “of peptide” for “of drug”, “CLSI methods.” for “CLSI methods (1).”, “concentration. The plates were then inoculated with 10 μL of the inoculum resulting in a final cell density of approximately 5×10^5 CFU/mL, per well.” for “concentration.”
as §7, with “peptide” for “drug”

[12] = system: Streptococcus agalactiae ATCC 13813; assay: Broth microdilution MIC (Table 2); format: cell-based; conditions: ATCC13813
Procedure: as §9, §10, §4
as §5, with “serial peptide” for “serial drug”, “of peptide.” for “of drug.”
as §6, with “5 uL” for “5 µL”, “of peptide” for “of drug”, “CLSI methods.” for “CLSI methods (1).”, “concentration. The plates were then inoculated with 10 μL of the inoculum resulting in a final cell density of approximately 5×10^5 CFU/mL, per well.” for “concentration.”
as §7, with “peptide” for “drug”

[13] = system: Streptococcus pneumoniae ATCC 49619 (QC); assay: Broth microdilution MIC (Table 2); format: cell-based
Procedure: as §9, §10, §4
as §5, with “serial peptide” for “serial drug”, “of peptide.” for “of drug.”
as §6, with “5 uL” for “5 µL”, “of peptide” for “of drug”, “CLSI methods.” for “CLSI methods (1).”, “concentration. The plates were then inoculated with 10 μL of the inoculum resulting in a final cell density of approximately 5×10^5 CFU/mL, per well.” for “concentration.”
as §7, with “peptide” for “drug”

[14] = system: Streptococcus pyogenes ATCC 49399; assay: Broth microdilution MIC (Table 2); format: cell-based
Procedure: as §9, §10, §4
as §5, with “serial peptide” for “serial drug”, “of peptide.” for “of drug.”
as §6, with “5 uL” for “5 µL”, “of peptide” for “of drug”, “CLSI methods.” for “CLSI methods (1).”, “concentration. The plates were then inoculated with 10 μL of the inoculum resulting in a final cell density of approximately 5×10^5 CFU/mL, per well.” for “concentration.”
as §7, with “peptide” for “drug”

[15] = system: Acinetobacter spp. isolates (n = 104); assay: Broth microdilution MIC, clinical isolate panel; format: cell-based; conditions: Acinetobacter spp. (n = 104)
Procedure: as §1, §2, §3, §4, §5, §6, §7, §8

[16] = system: Escherichia coli isolates (n = 101); assay: Broth microdilution MIC, clinical isolate panel; format: cell-based; conditions: Escherichia coli (n = 101)
Procedure: as §1, §2, §3, §4, §5, §6, §7, §8

[17] = system: Klebsiella pneumoniae isolates (n = 101); assay: Broth microdilution MIC, clinical isolate panel; format: cell-based; conditions: Klebsiella pneumoniae (n = 101)
Procedure: as §1, §2, §3, §4, §5, §6, §7, §8

[18] = system: Pseudomonas aeruginosa isolates (n = 109); assay: Broth microdilution MIC, clinical isolate panel; format: cell-based; conditions: Pseudomonas aeruginosa (n = 109)
Procedure: as §1, §2, §3, §4, §5, §6, §7, §8

[19] = system: Enterobacter spp. isolates (n = 102); assay: Broth microdilution MIC, clinical isolate panel; format: cell-based, Enterobacter aerogenes and E. cloacae; conditions: Enterobacter spp. (n = 102)
Procedure: as §1, §2, §3, §4, §5
The daughter plates were loaded with 185 μL per well of MHB II using the Multidrop 384. The daughter plates were completed on the Biomek FX instrument which transferred 5 µL of drug solution from each well of a mother plate to the corresponding well of each daughter plate in a single step. […]
Plates were stacked 3-4 high, covered with a lid on the top plate, placed in plastic bags, and incubated at 35° C. for 16 to 20 hrs. […] The MIC was read and recorded as the lowest concentration of drug that inhibited visible growth of the organism. […]

Compound | % R (percent of isolates resistant, clinical breakpoints) [1] [%] | % R (percent of isolates resistant, clinical breakpoints) ([2]; Staphylococcus aureus (n = 104), all methicillin-resistant) [%] | MIC ([2]; Staphylococcus aureus, read-out: Mode (MIC)) [µg/mL] | MIC [3] [µg/mL] | MIC [4] [µg/mL] | MIC [5] [µg/mL] | MIC [6] [µg/mL] | MIC [7] [µg/mL] | MIC [8] [µg/mL] | MIC [9] [µg/mL] | MIC [10] [µg/mL] | MIC [11] [µg/mL] | MIC [12] [µg/mL] | MIC [13] [µg/mL] | MIC [14] [µg/mL] | % R (percent of isolates resistant, clinical breakpoints) [15] [%] | % R (percent of isolates resistant, clinical breakpoints) [16] [%] | % R (percent of isolates resistant, clinical breakpoints) [17] [%] | % R (percent of isolates resistant, clinical breakpoints) [18] [%] | % R (percent of isolates resistant, clinical breakpoints) [19] [%]
CN[C@H](CC(C)C)C(=O)N[C@H]1C(=O)N[C@@H](CC(N)=O)C(=O)N[C@H]2C(=O)N[C@H]3C(=O)N[C@H](C(=O)N[C@H](C(=O)O)c4cc(O)cc(O)c4-c4cc3ccc4O)[C@H](O)c3ccc(c(Cl)c3)Oc3cc2cc(c3O[C@@H]2O[C@H](CO)[C@@H](O)[C@H](O)[C@H]2O[C@H]2C[C@](C)(N)[C@H](O)[C@H](C)O2)Oc2ccc(cc2Cl)[C@H]1O [Vancomycin] | 47.1 | 0 | 1 (≈ 0.69 µM) |  |  |  |  |  |  |  |  |  |  |  |  |  |  |  |  | 
Colistin |  |  |  | 0.25 | 0.25 | >32 | >32 | >32 | 0.25 | >32 | >32 | >32 | >32 | >32 | >32 | 20.2 | 0 | 27.7 | 7.3 | 5.8

From patent US20200071361A1, “ENGINEERED ANTIMICROBIAL AMPHIPHILIC PEPTIDES AND METHODS OF USE” (priority 2017, published 2020)
